Assay results taken from patent US8173694B2, “Therapeutic agent” (Pentraxin Therapeutics Limited, priority 2001, dated 2012).

What was measured:
SAP = SAP (Homo sapiens, UniProt P02743); test: Circulating human SAP in human SAP transgenic mice, drug in drinking water; format: in vivo, mouse; parameters: on circulating human SAP values in human SAP transgenic mice; from tissue; host or cells: plasma of human SAP transgenic mice; conditions: drug in the drinking water
Method: (§1) Clearance from the amyloid deposits, catabolism and excretion of the human SAP tracer were monitored globally by whole body counting of the mice (left), and the total amount of mouse SAP in the amyloidotic organs was determined after killing the animals on day 5 (right). […] Immediately after the 15 minute bleed, two groups, one that had received human SAP and the other mouse SAP, received a single intraperitoneal injection of 5 mg of (R)-1-[6-(R)-2-Carboxy-pyrrolidin-1-yl]-6-oxo-hexanoyl]pyrrolidine-2-carboxylic acid (desapin). Tracer remaining in the circulation is expressed as the mean (SD) percentage of the amount at the 15 minute time point for each group. […] In one of each of the pairs of groups receiving mouse or human SAP respectively, the tracer had been mixed with (R)-1-[6-(R)-2-Carboxy-pyrrolidin-1-yl]-6-oxo-hexanoyl]pyrrolidine-2-carboxylic acid (desapin) and incubated in vitro before injection into the animals. Tracer remaining in the circulation is expressed as mean (SD) total radioactivity per gram of blood in each group. Bottom panel: effect of administration of (R)-1-[6-(R)-2-Carboxy-pyrrolidin-1-yl]-6-oxo-hexanoyl]pyrrolidine-2-carboxylic acid (desapin) in the drinking water at the concentrations shown, on circulating human SAP values in human SAP transgenic mice. Mice of approximately 20 g body weight consume about 3 ml water per day. […]

mouse SAP = biological target: T1, mouse SAP (Mus musculus, UniProt P12246); test: Endogenous mouse SAP in amyloid deposits of mice with AA amyloidosis; format: in vivo
T1 construct: all the endogenous mouse SAP in the deposits; from tissue; host or cells: mice in vivo: amyloidotic organs, or plasma of normal wild type mice
T1 sequence (P12246 21-224): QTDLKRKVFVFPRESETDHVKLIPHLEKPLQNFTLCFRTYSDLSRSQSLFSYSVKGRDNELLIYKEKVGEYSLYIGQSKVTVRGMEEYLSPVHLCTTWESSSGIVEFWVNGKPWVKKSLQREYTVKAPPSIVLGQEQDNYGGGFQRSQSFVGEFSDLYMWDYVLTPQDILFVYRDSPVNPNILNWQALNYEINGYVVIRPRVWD
Method: as §1

isolated pure human SAP = isolated pure human SAP (Homo sapiens, UniProt P02743); test: Size exclusion chromatography of isolated pure SAP mixed with drug; format: binding; conditions: for Elution volume / Molecular assembly: SAP
Excerpt: SAP is a pentamer with 5 identical non-covalently associated protomers each bearing a single calcium dependent ligand binding site on one planar face, the binding (B) face, of the molecule (9). In the absence of calcium, human SAP forms stable decameric dimers, probably via A-face to A-face interactions (11). In the presence of calcium, isolated human SAP rapidly aggregates and precipitates, as a result of molecular lattice formation due to binding of the exposed carboxylate of the Glu167 residue on one SAP molecule by the calcium dependent ligand binding site of another SAP molecule (12,13). This autoaggregation of SAP is inhibited by other ligands to which SAP binds, and all the present inhibitors of SAP binding to amyloid fibrils were active in this respect. However we show here that the greater potency of (R)-1-[6-(R)-2-Carboxy-pyrrolidin-1-yl]-6-oxo-hexanoyl]pyrrolidine-2-carboxylic acid and related compounds, as inhibitors of SAP binding to amyloid fibrils in vitro, results from their capacity to cross link pairs of SAP molecules. The palindromic structure of (R)-1-[6-(R)-2-Carboxy-pyrrolidin-1-yl]-6-oxo-hexanoyl]pyrrolidine-2-carboxylic acid enables it to not only block the ligand binding sites on individual SAP protomers, but could also cross link pairs of pentameric SAP molecules to form B-B face to face decameric dimers.
(§2) C-reactive protein (CRP) is a pentraxin closely related to SAP. Samples of isolated pure human SAP or CRP were mixed with (R)-1-[6-(R)-2-Carboxy-pyrrolidin-1-yl]-6-oxo-hexanoyl]pyrrolidine-2-carboxylic acid at the molar ratios shown, with respect to pentraxin protomer, in physiological ionic strength Tris buffered saline pH 8.0, and analysed by size exclusion chromatography precisely as described previously (14). The mixtures and the column eluants contained either no calcium ions or 2 mM calcium, and the concentrations of drug appropriate to maintain the molar ratios indicated above. In the absence of a specific ligand to which it can bind, purified human SAP is insoluble in the presence of calcium and elutes as high molecular weight aggregates in the void volume of the column (14). However in the absence of calcium and ligand, isolated SAP alone forms stable decamers, providing an excellent marker for the elution volume of this molecular assembly (14). Human CRP is a stable pentamer either in the presence or absence of calcium and thus provides a robust marker for the elution position of that molecular form (14).

[1] = Metabolism, excretion and oral bioavailability in mice; format: in vivo, mouse
isolated pure human CRP = biological target: T2, isolated pure human CRP (Homo sapiens, UniProt P02741); test: Size exclusion chromatography of isolated pure CRP mixed with drug; format: binding
T2 sequence (P02741 19-224): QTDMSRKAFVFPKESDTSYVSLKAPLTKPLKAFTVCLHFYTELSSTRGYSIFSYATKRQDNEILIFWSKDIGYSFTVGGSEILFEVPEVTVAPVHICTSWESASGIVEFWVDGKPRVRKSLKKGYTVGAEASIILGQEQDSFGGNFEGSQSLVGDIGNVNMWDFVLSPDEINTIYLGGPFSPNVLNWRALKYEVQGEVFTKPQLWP
Method: as §2

radiolabelled mouse SAP = biological target: T3, radiolabelled mouse SAP (Mus musculus, UniProt P12246); test: Plasma clearance of radiolabelled mouse SAP tracer in mice; format: in vivo
T3 construct: intravenous injection of ^125I-labelled pure human or mouse SAP at time zero
T3 sequence (P12246 21-224): T1 sequence (P12246 21-224)
Method: as §1

[2] = drug:protein 1:1, calcium present
[3] = drug:protein 10:1, calcium present
[4] = drug:protein 128:1, calcium present

Chain of isolated pure human SAP (P02743 20-223): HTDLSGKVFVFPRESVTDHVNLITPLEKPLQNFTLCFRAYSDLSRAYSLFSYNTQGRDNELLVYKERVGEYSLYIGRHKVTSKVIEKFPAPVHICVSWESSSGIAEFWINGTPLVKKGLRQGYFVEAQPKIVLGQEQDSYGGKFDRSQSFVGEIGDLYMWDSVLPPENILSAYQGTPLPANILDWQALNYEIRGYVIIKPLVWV
Chain of SAP (P02743 20-223): as above

For O=C(O)[C@H]1CCCN1C(=O)CCCCC(=O)N1CCC[C@@H]1C(=O)O [(R)-1-[6-(R)-2-Carboxy-pyrrolidin-1-yl]-6-oxo-hexanoyl]pyrrolidine-2-carboxylic acid], the “Circulating human SAP” value (SAP) was “rapidly depleted”, the “Removal of endogenous mouse SAP from amyloid deposits” value (mouse SAP; 15 mg/kg/day, continuous infusion) was “removed all the mouse SAP” and the “Dose required to dissociate any endogenous mouse SAP significantly” value (mouse SAP; continuous infusion for 5 days via osmotic pump) was 1.5 mg/kg/day. The “Molecular assembly of isolated SAP by gel filtration” value (isolated pure human SAP; 128 fold or greater molar excess of drug) was “single pentameric form”, the “Elution volume” value (isolated pure human SAP; [2]) was 10.97 mL and the Molecular assembly (isolated pure human SAP; [2]) was “Decamer”. The “Elution volume” value (isolated pure human SAP; [3]) was 10.97 mL, the Molecular assembly (isolated pure human SAP; [3]) was “Decamer” and the “Elution volume” value (isolated pure human SAP; [4]) was 12.55 mL. The Molecular assembly (isolated pure human SAP; [4]) was “Pentamer”, the “Molecular assembly of isolated SAP by gel filtration” value (isolated pure human SAP; ratios between equimolar and 100 fold molar excess of drug to SAP protomers) was “all the SAP is decameric” and the Excretion [1] was “very rapidly excreted, predominantly in the urine, with a small amount in the bile”. For the same molecule, the Metabolism [1] was “not metabolised”, the Oral bioavailability [1] was “very limited oral bioavailability” and the “Elution volume” value (isolated pure human CRP; [2]) was 12.58 mL. The Molecular assembly (isolated pure human CRP; [2]) was “Pentamer”, the “Elution volume” value (isolated pure human CRP; [3]) was 11.96 mL and the Molecular assembly (isolated pure human CRP; [3]) was “Pentamer”. For the same molecule, the “Clearance of radiolabelled mouse SAP” value (radiolabelled mouse SAP; single intraperitoneal injection of 5 mg) was “no significant effect” and the “Clearance of radiolabelled mouse SAP preincubated with drug in vitro” value (radiolabelled mouse SAP; tracer preincubated with drug before intravenous injection into normal mice) was “extremely rapidly cleared”.
